# Assay results from patent publication US9783536B2, “Nitrogen-containing heterocyclic compound or salt thereof” (FUJIFILM Corporation, priority 2013, dated 2017).
# Read-outs that look alike come from different tables or passages of the source.
# Experiments:
# [1] = target: T1, human PI3Kα protein (Homo sapiens, UniProt P42336); assay: PI3Kα enzyme assay (ADP-Glo); format: biochemical; conditions: read-out: PI3Kα enzyme inhibitory activity
# T1 construct: purchased Carna Biosciences, Inc; host or cells: baculovirus expression system
# T1 sequence (P42336 whole entry): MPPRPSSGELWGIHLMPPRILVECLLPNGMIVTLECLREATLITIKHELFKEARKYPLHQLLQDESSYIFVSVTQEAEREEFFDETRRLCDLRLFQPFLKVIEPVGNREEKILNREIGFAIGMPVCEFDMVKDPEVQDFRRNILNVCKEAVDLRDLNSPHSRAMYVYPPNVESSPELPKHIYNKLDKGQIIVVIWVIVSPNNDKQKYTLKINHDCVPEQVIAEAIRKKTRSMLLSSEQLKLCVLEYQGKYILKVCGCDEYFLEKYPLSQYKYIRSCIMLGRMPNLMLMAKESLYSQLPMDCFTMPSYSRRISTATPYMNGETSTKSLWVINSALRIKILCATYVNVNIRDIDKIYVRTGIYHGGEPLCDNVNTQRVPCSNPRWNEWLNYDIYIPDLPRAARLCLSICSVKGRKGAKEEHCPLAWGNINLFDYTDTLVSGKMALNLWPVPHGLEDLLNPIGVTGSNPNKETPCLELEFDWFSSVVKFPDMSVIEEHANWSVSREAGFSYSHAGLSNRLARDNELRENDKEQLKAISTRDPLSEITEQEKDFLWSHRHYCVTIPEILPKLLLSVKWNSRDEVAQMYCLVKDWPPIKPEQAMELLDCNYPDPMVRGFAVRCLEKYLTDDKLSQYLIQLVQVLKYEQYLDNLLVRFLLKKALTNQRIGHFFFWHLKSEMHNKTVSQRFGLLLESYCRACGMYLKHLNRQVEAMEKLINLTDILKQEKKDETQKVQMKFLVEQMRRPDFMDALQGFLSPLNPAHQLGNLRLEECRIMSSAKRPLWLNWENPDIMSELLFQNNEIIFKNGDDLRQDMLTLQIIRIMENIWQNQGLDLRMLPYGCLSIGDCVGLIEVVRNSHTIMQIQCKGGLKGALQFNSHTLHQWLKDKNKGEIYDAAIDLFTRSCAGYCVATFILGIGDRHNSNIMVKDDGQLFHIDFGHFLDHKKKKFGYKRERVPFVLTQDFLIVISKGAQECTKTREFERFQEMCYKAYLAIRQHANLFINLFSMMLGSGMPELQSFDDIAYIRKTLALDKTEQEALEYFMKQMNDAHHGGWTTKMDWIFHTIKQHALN
# T1 sequence (P27986 whole entry partner): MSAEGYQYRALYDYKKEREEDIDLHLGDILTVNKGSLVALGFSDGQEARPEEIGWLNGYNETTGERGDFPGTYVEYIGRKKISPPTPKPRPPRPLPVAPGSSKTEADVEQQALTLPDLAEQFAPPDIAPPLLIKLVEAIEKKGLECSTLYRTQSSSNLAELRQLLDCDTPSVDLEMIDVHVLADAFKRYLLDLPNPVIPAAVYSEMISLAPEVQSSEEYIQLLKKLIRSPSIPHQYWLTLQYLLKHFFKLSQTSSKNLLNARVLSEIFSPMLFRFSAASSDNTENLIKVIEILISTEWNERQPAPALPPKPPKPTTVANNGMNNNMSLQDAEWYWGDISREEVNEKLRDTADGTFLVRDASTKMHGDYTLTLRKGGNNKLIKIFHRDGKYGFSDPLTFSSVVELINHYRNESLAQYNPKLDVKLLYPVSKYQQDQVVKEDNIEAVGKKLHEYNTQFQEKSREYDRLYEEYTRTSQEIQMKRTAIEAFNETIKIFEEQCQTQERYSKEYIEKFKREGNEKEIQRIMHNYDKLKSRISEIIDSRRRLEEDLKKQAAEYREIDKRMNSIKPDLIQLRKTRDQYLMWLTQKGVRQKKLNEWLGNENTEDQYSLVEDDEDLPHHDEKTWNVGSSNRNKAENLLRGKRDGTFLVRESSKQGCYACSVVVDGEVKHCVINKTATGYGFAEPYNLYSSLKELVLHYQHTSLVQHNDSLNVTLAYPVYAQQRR
# Method in brief: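 Biotinylated human PI3Kα (baculovirus-expressed, 4.5 nmol/L) pre-incubated 15 min with compound in Tris-HCl pH 7.5, MgCl2, BSA; reaction 60 min at 25° C with 50 μmol/L PIP2 and 100 μmol/L ATP final. ADP quantified by ADP-Glo luminescence; IC50 calculated.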
# [2] = target: T2, GST fusion human ERK2 protein (Homo sapiens, UniProt P28482); assay: ERK2 enzyme assay (2); format: biochemical; conditions: ERK2 enzyme assay (2); read-out: ERK2 enzyme inhibitory activity (2)
# T2 construct: purchased Carna Biosciences, Inc; host or cells: E. coli expression system
# T2 sequence (P28482 whole entry, the tested form may be a part): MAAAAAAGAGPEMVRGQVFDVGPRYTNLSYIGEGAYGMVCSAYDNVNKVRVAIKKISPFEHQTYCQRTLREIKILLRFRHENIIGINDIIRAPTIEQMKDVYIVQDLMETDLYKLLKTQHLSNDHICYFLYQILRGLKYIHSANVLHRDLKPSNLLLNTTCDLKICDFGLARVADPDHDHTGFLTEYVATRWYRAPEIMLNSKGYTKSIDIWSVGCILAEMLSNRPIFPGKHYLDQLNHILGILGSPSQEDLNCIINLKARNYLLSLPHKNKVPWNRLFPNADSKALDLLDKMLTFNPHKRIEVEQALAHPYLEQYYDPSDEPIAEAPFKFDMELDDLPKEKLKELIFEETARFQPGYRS
# Method in brief: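 GST-tagged human ERK2 expressed in E. coli (1.25 nmol/L) was preincubated with compound for 15 min at room temperature in pH 7.5 Hepes buffer with MgCl2, DTT and Brij35. Reaction with FL-Peptide 8 (final 4.25 μmol/L) and ATP (final 1 mmol/L) ran 120 min at 25 °C; EDTA stopped it, and phosphorylated peptide was quantified by mobility-shift separation to derive IC50.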
# [3] = system: CHO-K1 cells; assay: CHO cell toxicity test; format: cell-based, Chinese hamster; conditions: Cricetulus griseus, read-out: IC50 value (concentration at which the number of viable cells was suppressed to 50% or less)
# Protocol: In a CHO cell toxicity test, the following was used.
# Cell: CHO-K1 cells (derived from Chinese hamster ovary) Test medium: F-12 MEDIUM+FCS (manufactured by Biowest) having a final concentration of 2%
# Detection reagent: CELLTITER-GLO™ LUMINESCENT CELL VIABILITY ASSAY (trade name, manufactured by PROMEGA Corporation)
# The CHO-K1 cells were seeded in a 96-well microplate for culture at 5,000 cells/well, and cultured in a CO2 incubator (37° C.) for 24 hours. An evaluation compound (final concentration: from 25.00 μmol/L to 0.20 μmol/L, common ratio: […]) was added thereto, followed by culturing for 24 hours, and the number of viable cells was calculated from emission intensity by CELLTITER-GLO™ (trade name, manufactured by PROMEGA Corporation). In the measurement of the emission intensity, VARIOSKAN FLASH (manufactured by Thermo Fisher Scientific Inc.) was used.
# Inhibition ratio (%)=100−(A/B)×100
# A: Emission intensity in the presence of a test compound
# B: Emission intensity in the absence of a test compound
# [4] = CHO-K1 cells, 24 hours culture with compound, CellTiter-Glo
SMILES,IC50 [1] [nM],IC50 [2] [nM],"IC50 [3, 4] [nM]","IC50 ([3]; CHO-K1, 24 h) [nM]"
CC(C)c1cnnc(Nc2ccc3ncc(-c4cnn(CCCN5C6CCC5COC6)c4)cc3n2)c1 [Example 0651],< 1000,< 1000,≥ 25000,
CC(C)c1cnnc(Nc2ccc3ncc(-c4cn(C)nc4C4CC4)cc3n2)c1 [Example 0567],< 1000,< 1000,≥ 25000,
COC1CN(CCCn2cc(-c3cnc4ccc(Nc5cc(C(C)C)cnn5)nc4c3)cn2)C1 [Example 0630],< 1000,< 1000,≥ 25000,
CC(C)c1cnnc(Nc2ccc3ncc(-c4cn(C)nc4CC4CC4)cc3n2)c1 [Example 0781],< 1000,< 1000,,≥ 25000
"FC(F)(F)Cn1cc(-c2cnc3ccc(Nc4cc(C5CC5)cnn4)nc3c2)cn1 [Example 0465, N-(5-cyclopropylpyridazin-3-yl)-7-(1-(2,2,2-trifluoroethyl)-1H-pyrazol-4-yl)-1,5-naphthyridine-2-amine]",< 1000,< 1000,≥ 25000,
CC(C)c1cnnc(Nc2ccc3ncc(-c4cnn(CC5CCOCC5)c4)cc3n2)c1 [Example 0482],< 1000,< 1000,≥ 25000,
"CC(C)c1cnnc(Nc2ccc3ncc(-c4cnn(CCCN5CCS(=O)(=O)CC5)c4)cc3n2)c1 [Example 0417, 4-(3-(4-(6-((5-isopropylpyridazin-3-yl)amino)-1,5-naphthyridin-3-yl)-1H-pyrazol-1-yl)propyl)thiomorpholine 1,1-dioxide]",< 1000,< 1000,≥ 25000,
CC(C)c1cnnc(Nc2ccc3ncc(-c4cnn(CCCN5CCSCC5)c4)cc3n2)c1 [Example 0420],< 1000,< 1000,≥ 25000,
CC(C)c1cnnc(Nc2ccc3ncc(-c4cn(C)nc4-c4cncs4)cc3n2)c1 [Example 0583],< 1000,< 1000,,≥ 25000
CC(C)c1cnnc(Nc2ccc3ncc(-c4cnn(CCCN5CCO[C@@H](C)C5)c4)cc3n2)c1 [Example 0644],< 1000,< 1000,≥ 25000,
CC(=O)N1CC(n2cc(-c3cnc4ccc(Nc5cc(C(C)C)cnn5)nc4c3)cn2)C1 [Example 0443],< 1000,< 1000,≥ 25000,
CC(C)c1cnnc(Nc2ccc3ncc(-c4cnn(CCCN5C[C@@H](C)O[C@@H](C)C5)c4)cc3n2)c1 [Example 0615],< 1000,< 1000,≥ 25000,
"CC(C)c1cnnc(Nc2ccc3ncc(-c4cnn(CCC(C)N5CCOCC5)c4)cc3n2)c1 (stereo not drawn) [Example 0418, N-(5-isopropylpyridazin-3-yl)-7-(1-(3-morpholinobutyl)-1H-pyrazol-4-yl)-1,5-naphthyridine-2-amine]",< 1000,< 1000,≥ 25000,
CC(C)c1cnnc(Nc2ccc3ncc(-c4cn(C)nc4-c4cccnc4)cc3n2)c1 [Example 0515],< 1000,< 1000,≥ 25000,
CC(C)c1cnnc(Nc2ccc3ncc(-c4cn(C)nc4-c4ccncc4)cc3n2)c1 [Example 0552],< 1000,< 1000,≥ 25000,
"CC(C)c1cnnc(Nc2ccc3ncc(-n4ccnc4)cc3n2)c1 [Example 0510, 7-(1H-imidazol-1-yl)-N-(5-isopropylpyridazin-3-yl)-1,5-naphthyridine-2-amine]",1000 to 10000,< 1000,≥ 25000,
"CC(C)c1cnnc(Nc2ccc3ncc(-c4cnn(CCCN5C[C@@H](C)N[C@@H](C)C5)c4)cc3n2)c1 [Example 0439, 7-(1-(3-((3S,5R)-3,5-dimethylpiperazin-1-yl)propyl)-1H-pyrazol-4-yl)-N-(5-isopropylpyridazin-3-yl)-1,5-naphthyridine-2-amine]",< 1000,< 1000,≥ 25000,
CC(C)c1cnnc(Nc2ccc3ncc(-c4cn(C)nc4-c4ccc(C#N)nc4)cc3n2)c1 [Example 0455],< 1000,< 1000,≥ 25000,
CC(C)c1cnnc(Nc2ccc3ncc(-c4cnn(CCCN5CCOCC5=O)c4)cc3n2)c1 [Example 0424],< 1000,< 1000,,≥ 25000
CC(C)c1cnnc(Nc2ccc3ncc(-c4cnn([C@H]5CCN(C)C5)c4)cc3n2)c1 [Example 0492],< 1000,< 1000,≥ 25000,
COCCN(C)CCCn1cc(-c2cnc3ccc(Nc4cc(C(C)C)cnn4)nc3c2)cn1 [Example 0659],< 1000,< 1000,≥ 25000,
COCC1CN(CCCn2cc(-c3cnc4ccc(Nc5cc(C(C)C)cnn5)nc4c3)cn2)CCO1 (stereo not drawn) [Example 0679],< 1000,< 1000,≥ 25000,

# Now from value to compound, other results behind:
IC50 [1] [nM],IC50 [2] [nM],SMILES,"IC50 [3, 4] [nM]","IC50 ([3]; CHO-K1, 24 h) [nM]"
< 1000,< 1000,Cc1ncccc1-c1nn(C)cc1-c1cnc2ccc(Nc3cc(C(C)C)cnn3)nc2c1 [Example 0737],≥ 25000,
< 1000,< 1000,"CC(=O)NC1CN(CCCn2cc(-c3cnc4ccc(Nc5cc(C(C)C)cnn5)nc4c3)cn2)C1 [Example 0682, N-(1-(3-(4-(6-((5-isopropylpyridazin-3-yl)amino)-1,5-naphthyridin-3-yl)-1H-pyrazol-1-yl)propyl)azetidin-3-yl)acetamide]",≥ 25000,
< 1000,< 1000,CC(C)c1cnnc(Nc2ccc3ncc(-c4cnn(CCCN5CC(NS(C)(=O)=O)C5)c4)cc3n2)c1 [Example 0697],≥ 25000,
< 1000,< 1000,CCc1nn(C)cc1-c1cnc2ccc(Nc3cc(C(C)C)cnn3)nc2c1 [Example 0761],≥ 25000,
< 1000,< 1000,CC(=O)c1ccc(Cn2cc(-c3cnc4ccc(Nc5cc(C(C)C)cnn5)nc4c3)cn2)cc1 [Example 0795],≥ 25000,
< 1000,< 1000,CC(C)c1cnnc(Nc2ccc3ncc(-c4cnn(CC(F)CN5CCOCC5)c4)cc3n2)c1 (stereo not drawn) [Example 0733],≥ 25000,
< 1000,< 1000,CC(C)c1cnnc(Nc2ccc3ncc(-c4cnn(CCCN5CC(C#N)C5)c4)cc3n2)c1 [Example 0686],≥ 25000,
< 1000,< 1000,"CNC(=O)C1CN(CCCn2cc(-c3cnc4ccc(Nc5cc(C(C)C)cnn5)nc4c3)cn2)C1 [Example 0687, 1-(3-(4-(6-((5-Isopropylpyridazin-3-yl)amino)-1,5-naphthyridin-3-yl)-1H-pyrazol-1-yl)propyl)-N-methylazetidine-3-carboxamide]",≥ 25000,
< 1000,< 1000,CC(C)c1cnnc(Nc2ccc3ncc(-c4cnn(CCCN5CCOCC5CO)c4)cc3n2)c1 (stereo not drawn) [Example 0685],≥ 25000,
< 1000,< 1000,"CC(C)c1cnnc(Nc2ccc3ncc(-c4cnn(Cc5cccc(N)c5)c4)cc3n2)c1 [Example 0712, 7-(1-(3-Aminobenzyl)-1H-pyrazol-4-yl)-N-(5-isopropylpyridazin-3-yl)-1,5-naphthyridine-2-amine]",≥ 25000,
< 1000,< 1000,"CC(C)c1cnnc(Nc2ccc3ncc(-c4cnn(CCCN5CCN(C)C(=O)C5)c4)cc3n2)c1 [Example 0723, 4-(3-(4-(6-((5-isopropylpyridazin-3-yl)amino)-1,5-naphthyridin-3-yl)-1H-pyrazol-1-yl)propyl)-1-methylpiperazin-2-one]",≥ 25000,
